Source: patent publication US7370953B2, “Inkjet recording ink” (FUJIFILM Corporation, priority 2003, dated 2008)

Key:
[1] = Absorption spectrum of dye; type: physicochemical; details: comparative dyes; ratio as printed
From the text: To this end, the dye to be used in the invention preferably is a yellow dye having a λmax at a wavelength range of from 390 nm to 470 nm and a I(λmax+70 nm)/I(λmax) ratio of not greater than 0.2, more preferably not greater than 0.1 in which I(λmax) is the absorbance at λmax and I(λmax+70 nm) is the absorbance at λmax+70 nm. Ideally speaking, the lower limit of the ratio is 0. In actuality, however, the lower limit of the ratio is about 0.01.

[2] = Oxidation potential of dye (vs SCE); type: physicochemical; details: comparative dyes; method not stated
Procedure: The value of oxidation potential (Eox) can be easily measured by those skilled in the art.
In some detail, for the measurement of oxidation potential, the test specimen is dissolved in a solvent such as dimethyl formamide and acetonitrile containing a supporting electrolyte such as sodium perchlorate and tetrapropylammonium perchlorate in a concentration of from […] to 1×10^−6 mol/l. The solution is then measured for oxidation potential with respect to SCE (saturated calomel electrode) by cyclic voltametry or DC polarography, etc. This value may deviate by a few tens of millivolts when affected by the difference in potential between liquids or the resistivity of sample solution, but the reproducibility of potential can be assured by putting a standard sample (e.g., hydroquinone) in the sample solution.
In order to unequivocally define oxidation potential, in the present invention, the value (vs SCE) measured in dimethyl formamide containing 0.1 mol dm^−3 of tetrapropylammonium perchlorate as a supporting electrolyte (dye concentration: 0.001 mol dm^−3) is defined as oxidation potential of dye.

Row | Molecule | I(λmax)/I(λmax+70 nm) ratio [1] | oxidation potential [2]
1 | Cc1nn(-c2ccc(S(=O)(=O)[O-])cc2)c(O)c1/N=N/c1cccc(S(=O)(=O)Nc2cc(C(=O)[O-])cc(C(=O)[O-])c2)c1.[K+].[K+].[K+] [Yellow dye (C)] | ≤ 0.4 | ≤ 1.0 V (vs SCE)
2 | Direct Yellow 11 [Yellow dye (D)] | greater than 0.4 | ≤ 1.0 V (vs SCE)
